Test system: 171881-019-R-J1-PDC tumor spheroid viability
Test: Anticancer human tumor 171881-019-R-J1-PDC patient-derived invasive breast carcinoma cell line growth inhibition [PI3K]
Settings: spheroids with HUVEC and MSC; for IC50: curve of first compound; for viability, T/C: stronger effect = lower value
From the text: Combinatorial screen of targeted agents with the PI3K inhibitors inavolisib, alpelisib, duvelisib, and copanlisib in multi-cell type tumor spheroids
A high-throughput screen of multi-cell type tumor spheroids was designed to identify active combinations of targeted small molecules and PI3K pathway inhibitors. Complex spheroids include a stromal component modeled by human endothelial cells (HUVEC) and fibroblasts modeled by human mesenchymal stem cells (MSCs). The concentration ranges selected for each drug and investigational agent were based upon clinically achievable concentrations if the clinical Cmax of the agent was known.
Compounds. The drugs and investigational agents: inavolisib (NSC800729), alpelisib (NSC765974), duvelisib (NSC772469), copanlisib (NSC816437), ipatasertib (NSC767898), afuresertib (NSC778305), talazoparib (NSC767125), sapanisertib (NSC764658), selumetinib (NSC741078), tovorafenib (DAY101, NSC766906), vemurafenib (NSC761431), ravoxertinib (NSC781343), sotorasib (NSC818433), MRTX1133 (NSC 836407), abemaciclib (NSC 768073), palbociclib (NSC758247), venetoclax (NSC 766270), SY5609 (NSC837396), enzalutamide (NSC755605), and darolutamide (NSC825331), were obtained from the National Cancer Institute (NCI) Developmental Therapeutics Program Chemical Repository. The FDA-approved anticancer drug set is available from the NCI Developmental Therapeutics Program. […] The stock solutions were prepared in dimethyl sulfoxide (DMSO, Sigma-Aldrich, St. Louis, MO, cat. D2650) at 800-fold the tested concentration and stored at -70 degrees C prior to their use. All drugs and investigational agents were tested over a range starting from a high concentration at or near the clinical Cmax and decreasing in half-log increments. If the clinical Cmax for an agent had not been determined, the highest concentration tested was 10 microM.
Cell Culture. All cells were maintained in an incubator at 37 degrees C and 5% CO2 with 95% humidity. The PDC lines were cultured according to standard operating procedures established by the NCI PDMR (https://pdmr.cancer.gov/sops/default.htm). All PDCs were thawed and cultured in Matrigel-coated flasks prepared with a working solution of 1X Ham's F-12 nutrient mix, without supplementation (Invitrogen, Waltham, MA, cat. 11765054), 100 U/mL penicillin-streptomycin (Invitrogen, cat. 15140122), and 2.5% Matrigel (Corning Inc., Corning, NY, cat. 354248) for the first three passages. The 354836-022-R-J1-PDC, 475296-252-R-J1-PDC, and 997726-040-R-J2-PDC lines were cultured in 6A media, which includes advanced DMEM/F-12 (Thermo Fisher Scientific, cat. 12634028), 10 mM HEPES (Thermo Fisher Scientific, cat. 15630080), 1X GlutaMAX supplement (Thermo Fisher Scientific, cat. 35050061), 0.1 mg/mL primocin (InvivoGen, San Diego, CA, cat. ant-pm-2), 10% defined fetal bovine serum, heat inactivated (HyClone Laboratories Inc., Logan, UT, cat. SH30070.03HI), 50% L-WRN conditioned media (ATCC, cat. CRL-3276), 1.25 mM N-Acetyl-L-cysteine (Sigma-Aldrich, cat. A9165), 10 mM nicotinamide (Sigma-Aldrich, cat. N0636), 1X B-27 supplement (Thermo Fisher Scientific, cat. 17504044), 1X N-2 supplement (Thermo Fisher Scientific, cat. 17502048), and 10 microM Y-27632 dihydrochloride (Tocris Bioscience, Bristol, United Kingdom, cat. 1254). The 624824-186-R-J2-PDC line was cultured in 6C/Colon 1B media, which includes all 6A media components plus 50 ng/mL human EGF recombinant protein (Thermo Fisher Scientific, cat. PHG0311). […]

[1] = second compound 0.00316 µM, first compound 0.0316 µM
[2] = second compound 0.00316 µM, first compound 0.1 µM
[3] = second compound 0.01 µM, first compound 0.0316 µM
[4] = second compound 0.01 µM, first compound 0.1 µM
[5] = second compound 0.0316 µM, first compound 0.0316 µM
[6] = second compound 0.0316 µM, first compound 0.1 µM
[7] = second compound 0.1 µM, first compound 0.0316 µM
[8] = second compound 0.1 µM, first compound 0.1 µM
[9] = second compound 0.316 µM, first compound 0.0316 µM
[10] = second compound 0.316 µM, first compound 0.1 µM
[11] = second compound 1 µM, first compound 0.0316 µM
[12] = second compound 1 µM, first compound 0.1 µM
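Further: spheroids exposed to compound for 7 days before viability read.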
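Wherever viability, T/C is given: 100% = DMSO vehicle-treated spheroids.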

## CC(C)NCC(C(=O)N1CCN(c2ncnc3c2C(C)CC3O)CC1)c1ccc(Cl)cc1 (centres undefined) + CC(Nc1ccc2c(c1)OCCn1cc(N3C(=O)OCC3C(F)F)nc1-2)C(N)=O
Second compound 0.00316 µM
  IC50: 304 nM
Second compound 0.01 µM
  IC50: 275 nM
Second compound 0.0316 µM
  IC50: 65.5 nM
Second compound 0.1 µM
  IC50: < 31.6 nM
Second compound 0.316 µM
  IC50: < 31.6 nM
Second compound 1 µM
  IC50: < 31.6 nM
[1]
  viability, T/C: 84%
[2]
  viability, T/C: 70%
Second compound 0.00316 µM, first compound 0.316 µM
  viability, T/C: 50.4%
Second compound 0.00316 µM, first compound 1 µM
  viability, T/C: 26.5%
Second compound 0.00316 µM, first compound 3.16 µM
  viability, T/C: 13.8%
Second compound 0.00316 µM, first compound 10 µM
  viability, T/C: 9.57%
[3]
  viability, T/C: 64.8%
[4]
  viability, T/C: 69%
Second compound 0.01 µM, first compound 0.316 µM
  viability, T/C: 45.6%
Second compound 0.01 µM, first compound 1 µM
  viability, T/C: 24.4%
Second compound 0.01 µM, first compound 3.16 µM
  viability, T/C: 13.4%
Second compound 0.01 µM, first compound 10 µM
  viability, T/C: 9.59%
[5]
  viability, T/C: 52%
[6]
  viability, T/C: 48.9%
Second compound 0.0316 µM, first compound 0.316 µM
  viability, T/C: 38.6%
Second compound 0.0316 µM, first compound 1 µM
  viability, T/C: 22.3%
Second compound 0.0316 µM, first compound 3.16 µM
  viability, T/C: 12.2%
Second compound 0.0316 µM, first compound 10 µM
  viability, T/C: 8.08%
[7]
  viability, T/C: 35.4%
[8]
  viability, T/C: 35.5%
Second compound 0.1 µM, first compound 0.316 µM
  viability, T/C: 31.3%
Second compound 0.1 µM, first compound 1 µM
  viability, T/C: 19.5%
Second compound 0.1 µM, first compound 3.16 µM
  viability, T/C: 11.7%
Second compound 0.1 µM, first compound 10 µM
  viability, T/C: 7.31%
[9]
  viability, T/C: 27.1%
[10]
  viability, T/C: 23.8%
Second compound 0.316 µM, first compound 0.316 µM
  viability, T/C: 23.5%
Second compound 0.316 µM, first compound 1 µM
  viability, T/C: 16.4%
Second compound 0.316 µM, first compound 3.16 µM
  viability, T/C: 10.8%
Second compound 0.316 µM, first compound 10 µM
  viability, T/C: 7.4%
[11]
  viability, T/C: 20.5%
[12]
  viability, T/C: 20%
Second compound 1 µM, first compound 0.316 µM
  viability, T/C: 19.1%
Second compound 1 µM, first compound 1 µM
  viability, T/C: 13.5%
Second compound 1 µM, first compound 3.16 µM
  viability, T/C: 9.24%
Second compound 1 µM, first compound 10 µM
  viability, T/C: 7.07%

## Cn1ncnc1[C@H]1c2n[nH]c(=O)c3cc(F)cc(c23)N[C@@H]1c1ccc(F)cc1 + CC(Nc1ccc2c(c1)OCCn1cc(N3C(=O)OCC3C(F)F)nc1-2)C(N)=O
Second compound 0.00316 µM
  IC50: > 100 nM
Second compound 0.01 µM
  IC50: > 100 nM
Second compound 0.0316 µM
  IC50: > 100 nM
Second compound 0.1 µM
  IC50: < 0.316 nM
Second compound 0.316 µM
  IC50: < 0.316 nM
Second compound 1 µM
  IC50: < 0.316 nM
Second compound 0.00316 µM, first compound 0.000316 µM
  viability, T/C: 85.4%
Second compound 0.00316 µM, first compound 0.001 µM
  viability, T/C: 96.5%
Second compound 0.00316 µM, first compound 0.00316 µM
  viability, T/C: 95.2%
Second compound 0.00316 µM, first compound 0.01 µM
  viability, T/C: 91.6%
[1]
  viability, T/C: 95.9%
[2]
  viability, T/C: 70.6%
Second compound 0.01 µM, first compound 0.000316 µM
  viability, T/C: 79%
Second compound 0.01 µM, first compound 0.001 µM
  viability, T/C: 76.4%
Second compound 0.01 µM, first compound 0.00316 µM
  viability, T/C: 78.2%
Second compound 0.01 µM, first compound 0.01 µM
  viability, T/C: 65.5%
[3]
  viability, T/C: 81.5%
[4]
  viability, T/C: 71.5%
Second compound 0.0316 µM, first compound 0.000316 µM
  viability, T/C: 54%
Second compound 0.0316 µM, first compound 0.001 µM
  viability, T/C: 55.7%
Second compound 0.0316 µM, first compound 0.00316 µM
  viability, T/C: 51.5%
Second compound 0.0316 µM, first compound 0.01 µM
  viability, T/C: 52%
[5]
  viability, T/C: 55.3%
[6]
  viability, T/C: 48.7%
Second compound 0.1 µM, first compound 0.000316 µM
  viability, T/C: 37.8%
Second compound 0.1 µM, first compound 0.001 µM
  viability, T/C: 38.9%
Second compound 0.1 µM, first compound 0.00316 µM
  viability, T/C: 36.8%
Second compound 0.1 µM, first compound 0.01 µM
  viability, T/C: 38%
[7]
  viability, T/C: 36.8%
[8]
  viability, T/C: 34.5%
Second compound 0.316 µM, first compound 0.000316 µM
  viability, T/C: 26.2%
Second compound 0.316 µM, first compound 0.001 µM
  viability, T/C: 26.3%
Second compound 0.316 µM, first compound 0.00316 µM
  viability, T/C: 26.1%
Second compound 0.316 µM, first compound 0.01 µM
  viability, T/C: 25%
[9]
  viability, T/C: 26.2%
[10]
  viability, T/C: 21.1%
Second compound 1 µM, first compound 0.000316 µM
  viability, T/C: 21.7%
Second compound 1 µM, first compound 0.001 µM
  viability, T/C: 18.7%
Second compound 1 µM, first compound 0.00316 µM
  viability, T/C: 21.2%
Second compound 1 µM, first compound 0.01 µM
  viability, T/C: 18.6%
[11]
  viability, T/C: 19.8%
[12]
  viability, T/C: 17.7%
